Laboratory results as given in patent US4044150A, “Antihypertensive 4'-[1-hydroxy-2-[(1-phenoxy ethyl)-amino]ethyl]methanesulfonanilide and salts thereof and therapeutic use” (Mead Johnson & Company, priority 1976, dated 1977).
“Also recorded” adds a separate entry of the source.

Assays:
[1] = acute toxicity in mice (LD50); conditions: mouse, in vivo, hydrochloride
[2] = acute toxicity in rats (oral LD50); conditions: rat, in vivo, hydrochloride
[3] = tested on: Anesthetized Dog Challenged with Isoproterenol; experiment: inherent cardiac and blood pressure effects in the isoproterenol challenged intact anesthetized dog; type: in vivo; conditions: for Absolute Change From Control in Contractile Force (CF) / Absolute Change From Control in Heart Rate (HR) / Absolute Change From Control in Mean Arterial Blood Pressure (MABP): decrease
Description: One such test involves the measurement of inherent cardiac and blood pressure effects in the isoproterenol challenged intact anesthetized dog. In this test model, dogs are anesthetized with a mixture of phenobarbital sodium (15 mg./kg.) and barbital sodium (225 mg./kg.) intravenously and are vagotomized bilaterally. Heart rate, contractile force and diastolic blood pressure are continuously recorded with alterations in these responses (e.g. tachycardia) produced by intravenously administered isoproterenol determined before and after injection of increasing doses of the test compound. The test substance is administered to separate groups of dogs at cumulative doses of 0.1, 0.3, 1, 3, and 10 mg./kg. body weight with each dose of the test substance infused slowly over a period of 3-5 minutes. After completing infusion of the test substance, a 10 -minute equilibrium period is allowed for drug-receptor interaction and stabilization of the cardiovascular system before a series of isoproterenol challenges is initiated. Maximum response to isoproterenol is achieved after each dose of the beta-adrenergic blocking agent by logarithmically increasing the dose of this agonist as receptor blockade develops. Each dose of isoproterenol is given approximately 5 minutes after the previous one and the overall dose range for isoproterenol is from 0.03-300 micrograms per kilogram body weight. Mean changes in the resting levels of the cardiovascular variables (heart rate, contractile force, and mean arterial blood pressure) due to the administration of each agent (which is taken as a measure of the inherent drug effect) is determined and statistically compared using the Student's test.

[4] = tested on: Spontaneous Hypertensive Rat; experiment: lowering of blood pressure and heart rate in the spontaneously hypertensive rat (SHR); type: in vivo; conditions: for ED (40 mm Hg) / ED (10%): Rattus norvegicus, 4 h; for ED (40 mm Hg): read-out: Dose which lowers blood pressure by 40 mm Hg; for ED (10%): read-out: Dose which lowers heart rate by 10%; for reduction of heart rate / reduction of systolic blood pressure: doses of 50-200 mg./kg., 4 hours (FIG. 1, FIG. 2)
Description: FIG. 1 constitutes a dose-response graph of blood pressure and heart rate changes determined in the spontaneous hypertensive rat 4 hours after orally administered 4'-[1-hydroxy-2-[(1 -phenoxyethyl)amino]ethyl]methanesulfonanilide (Compound A). Blood pressure changes at doses of 50, 100, and 200 mg./kg. body weight are given in millimeters of mercury and are represented by circles (-0 -) with percent change in heart rate represented by squares (- -).
FIG. 2 constitutes a dose-response graph of blood pressure and heart rate changes similar to that of FIG. 1 for 4-[2-( 1-phenoxy-2-propylamino)-1-hydroxyethyl]methanesulfonanilide (Compound B).
Another in vivo animal experiment considered predictive of antihypertensive utility by those skilled in the art is the lowering of blood pressure in an inbred strain of spontaneously hypertensive rat (SHR) established by Okamoto and Aoki. In this test, systolic blood pressure and heart rate determinations are made immediately before the animals are orally dosed to provide control values and subsequently thereafter at 4 and 24-hour periods to determine drug effect. Various doses of test drug are administered and a dose-response graph obtained by plotting (on semi-log paper) the observed change (mm Hg) in systolic blood pressure and percent change in heart rate as […]. […] Values set forth in Table II below are taken from FIGS. 1 and 2.

mammals = experiment: general statement on heart rate at effective antihypertensive doses; type: in vivo; conditions: for change in heart rate: at effective antihypertensive or hypotensive doses
beta-receptor = conditions: isolated guinea pig tracheal spiral; Uloth et al., J. Med. Chem. 9, 88-97 (1966); cited from earlier work
[5] = 0.3 mg/kg i.v., + = increase from control (footnote c)

CS(=O)(=O)Nc1ccc(C(O)CNCCOc2ccccc2)cc1.Cl (stereo not drawn) [4'-[1-Hydroxy-2-[(2-phenoxyethyl)amino]ethyl]methanesulfonanilide Hydrochloride]
LD50 ([1]; ip, intraperitoneal, read-out: intraperitoneal LD50): 273 mg/kg
LD50 ([1]; oral, read-out: oral LD50): 1920 mg/kg
LD50 ([2]; female rat): 1950 mg/kg
LD50 ([2]; male rat): 3550 mg/kg

CS(=O)(=O)Nc1ccc(C(O)CNCCOc2ccccc2)cc1 (stereo not drawn) [Compound A, 4'-[1-hydroxy-2-[(2-phenoxyethyl)amino]ethyl]methanesulfonanilide]
Absolute Change From Control in Contractile Force (CF) ([3]; 0.1 mg/kg i.v.): 9 ± 6 gm
Absolute Change From Control in Heart Rate (HR) ([3]; 0.1 mg/kg i.v.): 18 ± 4 bpm
Absolute Change From Control in Mean Arterial Blood Pressure (MABP) ([3]; 0.1 mg/kg i.v.): 11 ± 1 mm Hg
Absolute Change From Control in Contractile Force (CF) ([3]; 0.3 mg/kg i.v.): 8 ± 6 gm
Absolute Change From Control in Heart Rate (HR) ([3]; 0.3 mg/kg i.v.): 22 ± 4 bpm
Absolute Change From Control in Mean Arterial Blood Pressure (MABP) [3, 5]: 17 ± 3 mm Hg
Absolute Change From Control in Contractile Force (CF) ([3]; 1.0 mg/kg i.v.): 11 ± 5 gm
Absolute Change From Control in Heart Rate (HR) ([3]; 1.0 mg/kg i.v.): 32 ± 5 bpm
Absolute Change From Control in Mean Arterial Blood Pressure (MABP) ([3]; 1.0 mg/kg i.v.): 12 ± 3 mm Hg
Absolute Change From Control in Contractile Force (CF) ([3]; 3.0 mg/kg i.v.): 11 ± 5 gm
Absolute Change From Control in Heart Rate (HR) ([3]; 3.0 mg/kg i.v.): 38 ± 6 bpm
Absolute Change From Control in Mean Arterial Blood Pressure (MABP) ([3]; 3.0 mg/kg i.v.): 16 ± 4 mm Hg
Absolute Change From Control in Contractile Force (CF) ([3]; 10.0 mg/kg i.v.): 17 ± 7 gm
Absolute Change From Control in Heart Rate (HR) ([3]; 10.0 mg/kg i.v.): 38 ± 6 bpm
Absolute Change From Control in Mean Arterial Blood Pressure (MABP) ([3]; 10.0 mg/kg i.v.): 34 ± 7 mm Hg
reduction in heart rate ([3]; dose of 0.1 mg./kg.): 12%
effect on mean arterial blood pressure ([3]; doses of 0.3 to 1.0 mg./kg.): effectively reduces mean arterial blood pressure
ED (40 mm Hg) ([4]; oral, taken from FIGS. 1 and 2): 165 mg/kg
ED (10%) ([4]; oral, taken from FIGS. 1 and 2): 150 mg/kg
bradycardia liability relative to Compound B ([4]; at doses sufficient to reduce blood pressure by 40 mm Hg): about 50%
reduction of heart rate ([4]; oral): 2-12%
reduction of systolic blood pressure ([4]; oral): 22-43 mm Hg
Percent decrease in blood pressure at dose lowering heart rate by 10% ([4]; oral, taken from FIGS. 1 and 2): 38%
Percent decrease in heart rate at dose lowering blood pressure by 40 mm Hg ([4]; oral, taken from FIGS. 1 and 2): 11%
change in heart rate (mammals): little or no effect on heart rate
change in heart rate (mammals; listed as compound of the instant invention): little or no significant change in heart rate
effect on blood pressure (mammals; effective dose): reduces blood pressure

CC(COc1ccccc1)NCC(O)c1ccc(NS(C)(=O)=O)cc1 (stereo not drawn) [Compound B, 4-[2-(1-phenoxy-2-propylamino)-1-hydroxyethyl]methanesulfonanilide, reference compound]
Absolute Change From Control in Contractile Force (CF) ([3]; 0.3 mg/kg i.v.): 6 ± 7 gm
Absolute Change From Control in Heart Rate (HR) ([3]; 0.3 mg/kg i.v.): 29 bpm
Absolute Change From Control in Mean Arterial Blood Pressure (MABP) [3, 5]: +1 ± 5 mm Hg
Absolute Change From Control in Contractile Force (CF) ([3]; 1.0 mg/kg i.v.): 4 ± 7 gm
Absolute Change From Control in Heart Rate (HR) ([3]; 1.0 mg/kg i.v.): 39 ± 7 bpm
Absolute Change From Control in Mean Arterial Blood Pressure (MABP) ([3]; 1.0 mg/kg i.v.): 2 ± 6 mm Hg
Absolute Change From Control in Contractile Force (CF) ([3]; 3.0 mg/kg i.v.): 4 ± 7 gm
Absolute Change From Control in Heart Rate (HR) ([3]; 3.0 mg/kg i.v.): 54 ± 7 bpm
Absolute Change From Control in Mean Arterial Blood Pressure (MABP) ([3]; 3.0 mg/kg i.v.): 10 ± 8 mm Hg
Absolute Change From Control in Contractile Force (CF) ([3]; 10.0 mg/kg i.v.): 6 ± 9 gm
Absolute Change From Control in Heart Rate (HR) ([3]; 10.0 mg/kg i.v.): 72 ± 9 bpm
Absolute Change From Control in Mean Arterial Blood Pressure (MABP) ([3]; 10.0 mg/kg i.v.): 28 ± 14 mm Hg
reduction in heart rate ([3]; dose of 3 mg./kg.): 33%
effect on heart rate (bradycardia) ([3]; doses of 0.3 to 1.0 mg./kg.): pronounced bradycardia
effect on mean arterial blood pressure ([3]; doses of 0.3 to 1.0 mg./kg.): no significant effect
ED (40 mm Hg) ([4]; oral, taken from FIGS. 1 and 2): 100 mg/kg
ED (10%) ([4]; oral, taken from FIGS. 1 and 2): 18 mg/kg
reduction of heart rate ([4]; oral): 17-25%
reduction of systolic blood pressure ([4]; oral): 18-64 mm Hg
Percent decrease in heart rate at dose lowering blood pressure by 40 mm Hg ([4]; oral, taken from FIGS. 1 and 2): 21%
decrease in blood pressure at dose lowering heart rate by 10% (in words) ([4]; oral, taken from FIGS. 1 and 2): no significant; also recorded: no effect on blood pressure
change in heart rate (mammals): substantial decrease in heart rate
beta-receptor blocking activity relative to dichloroisoproterenol (beta-receptor): four times the activity of dichloroisoproterenol
